From a melting point compilation (Tetko et al.) come the findings set out here.

The structures appear in SMILES notation.

In the case of `Cc1cc(O)c([N+](=O)[O-])cc1S(=O)(=O)Cl`, the melting point (in general, the temperature, or range, at which the solid turns liquid) fell in the range of 63 to 65 °C.

The compound `O=C(O)c1ccc2c(c1)C(=O)N(C1CC1)C2=O` returned a melting point of 220 to 222 °C. `C=CCNc1nnc(S)s1` gave a melting point of 133 to 135 °C. Compound `Cc1nn(-c2ccc(C(=O)O)cc2)c(C)c1Br` returned a melting point of 229 to 231 °C.

`O=C(CCl)NCc1cccc(NC(=O)C2CC2)c1` had a melting point of 175 to 177 °C. The value for `CC(=O)c1ccc(-c2ccccc2)s1` was 115 to 117 °C; that for `Cc1ccc(-c2ccncc2)cc1N` was 202 to 204 °C.

In the case of `Cn1ccnc1Sc1ccc(C=O)cc1[N+](=O)[O-]`, the melting point is 173 to 175 °C. `O=C(O)c1nccnc1C(=O)N1CCOCC1` showed a melting point of 185 to 187 °C.

`O=C(O)c1ccc(C2CC2)s1` returned a melting point of 111 to 113 °C. The value for `COC(=O)c1oc(Br)cc1C` was 62 to 64 °C; that for `Cc1cc(Cl)ccc1S(=O)(=O)Cl` was 54 to 56 °C.

With `CCOc1ccc2nc(NS(=O)(=O)c3cc(C(=O)O)c(Cl)cc3Cl)sc2c1`, the melting point fell in the range of 163 to 165 °C. `CC(CC(=O)O)NC(=O)OC(C)(C)C` (stereo not given) had a melting point of 94 to 96 °C.

As for `Cc1nn(Cc2ccc(Cl)cc2)c(C)c1CO`, the melting point was in the range of 132 to 134 °C. With `CCCCc1ccc(NS(=O)(=O)c2ccc(N)cc2)cc1` the figure was 159 to 161 °C.

On to `O=C1Nc2c(Br)ccc(Br)c2C1=O`, for which the melting point fell in the range of 271 to 273 °C. In turn, `Nc1ccccc1C(O)C(F)(F)F` (stereo not given) displayed a melting point of 119 to 121 °C. `NC1CCN(c2c(F)cccc2F)C1=O` (stereo not given) yielded a melting point of 62 to 64 °C. The value for `COc1ccccc1Nc1ccc(N)cc1` was 73 to 75 °C; that for `N#Cc1cccc(N2CCOC2=O)c1` was 102 to 104 °C; that for `COC(=O)c1cc(N)cc(F)c1F` was 89 to 91 °C. The value for `COCCS(=O)(=O)Cc1cccc(S(=O)(=O)Cl)c1` was 109 to 111 °C. With `O=C(O)c1n[nH]cc1[N+](=O)[O-]` the figure was 223 to 225 °C.

`N#Cc1cc(Cl)ccc1OC1CCOC1` (stereo not given) showed a melting point of 128 to 130 °C. For the compound `Nc1ccc(-c2cn3ccsc3n2)cc1`, the melting point was 199 to 201 °C. Regarding `Cc1ccn2c(N)c(-c3cccs3)nc2c1`, the melting point was in the range of 223 to 225 °C. With `CNS(=O)(=O)c1ccc(S(=O)(=O)Cl)cc1` the figure was 99 to 101 °C; with `O=S(=O)(Cl)c1cnn(-c2ccccc2F)c1`, 81 to 83 °C. On to `CN1CCC(Nc2cccc3ccccc23)CC1`, for which the melting point is 83 to 85 °C. In turn, `NC(=O)C1CCCCN1C(=O)CCl` (stereo not given) yielded a melting point of 149 to 151 °C. The value for `CN(C)S(=O)(=O)c1cccc(CO)c1` was 65 to 67 °C.

As to `O=Cc1ccc(OCc2cscn2)cc1`, the melting point fell in the range of 78 to 80 °C. Take `COc1ccc(-c2[nH]c3ccc(F)cc3c2CCC(=O)O)cc1`: the melting point is 134 to 138 °C. The value for `Cc1ccccc1CC(=O)Nc1ccc(C(=O)O)c(O)c1` was 222 to 224 °C.

`CCNc1nc(C)c(C(=O)OCC)s1` registered a melting point of 102 to 104 °C.

The compound `N#Cc1c(Cl)nc(Cl)c(Cl)c1Cl` gave a melting point of 148 to 150 °C.

`O=C(CCl)N1CCN(c2ncccn2)CC1` came in with a melting point of 100 to 102 °C. With `Cn1nnnc1Sc1ccc(Br)cc1N` the figure was 148 to 150 °C; with `NNC(=O)Cc1ccncc1`, 91 to 93 °C; with `CN(C)C(=O)c1ccc(Cl)c(N)c1`, 76 to 78 °C.

For the compound `Cc1cc(C=O)c(C)n1CC(C)C`, the melting point is 43 to 47 °C. The value for `O=Cc1cn(-c2ccccc2)nc1-c1cccc(Br)c1` was 91 to 93 °C; that for `Cc1nnc(CO)n1C1CC1` was 114 to 116 °C.

`Nc1ccc(F)c(S(=O)(=O)N2CCOCC2)c1` gave a melting point of 128 to 130 °C. The value for `Nc1cccc(NC(=O)C2CCCCC2)c1` was 139 to 141 °C; that for `CC(C)c1ccc(SCC(=O)O)cc1` was 66 to 68 °C; that for `O=C(c1ccc(Br)cc1)c1ccccc1F` was 35 to 37 °C.

The compound `CCOC(=O)Cc1nnc(S)n1C` gave a melting point of 135 to 137 °C. With `Cc1ccc2c(c1)C(=O)N(C(C)C(=O)O)C2=O` (stereo not given) the figure was 141 to 143 °C; with `Cc1ncsc1NC(=O)OC(C)(C)C`, 136 to 138 °C. With `CC(C)(N)c1nnn[nH]1` the figure was 251 to 253 °C.

`Sc1nncn1-c1ccccc1` registered a melting point of 172 to 174 °C. `O=C(O)c1occc1CS(=O)(=O)c1ccc(Br)cc1` showed a melting point of 211 to 213 °C. Compound `Cc1cc(Oc2ccccc2)c2cc([N+](=O)[O-])ccc2n1` displayed a melting point of 167 to 169 °C. With `CCN(CC)S(=O)(=O)c1cccc(C(=O)O)c1` the figure was 164 to 166 °C; with `CC(=O)c1cnn(C)c1`, 51 to 53 °C. `O=C(O)CNS(=O)(=O)c1ccc(Cl)s1` yielded a melting point of 142 to 144 °C. The value for `O=C(O)CS(=O)(=O)c1ccc([N+](=O)[O-])cc1` was 162 to 164 °C. Take `CC(NC(=O)c1ccccc1N)c1ccccc1` (stereo not given): the melting point is 127 to 129 °C.

In turn, `O=C(NCc1ccccc1)c1cc(Cl)ccn1` yielded a melting point of 66 to 68 °C. `O=C(Nc1ccccc1)c1ccc(CBr)cc1` gave a melting point of 179 to 181 °C.

`O=C1c2ccccc2C(=O)N1CCCc1nn[nH]n1` came in with a melting point of 79 to 81 °C. Turning to `O=C(O)c1[nH]c2ccc(F)cc2c1Cl`, the melting point fell in the range of 279 to 281 °C. `CC(C)(C)C(=O)NCc1ccc(C(=O)CCl)s1` gave a melting point of 102 to 104 °C. With `COc1ccc(NC(=O)C(C)Cl)c(OC)c1` (stereo not given) the figure was 65 to 67 °C; with `N#Cc1cc2ccccc2[nH]c1=O`, 327 to 329 °C. `O=C(Nc1ncccc1O)c1ccc(C2SCCS2)cc1` returned a melting point of 114 to 116 °C.

The compound `O=C(O)c1c[nH]cc1-c1ccc([N+](=O)[O-])cc1` yielded a melting point of 209 to 211 °C.

For `O=C(c1cc(Br)c(S(=O)(=O)Cl)[nH]1)C(Cl)(Cl)Cl`, the melting point lay in the range of 144 to 146 °C.

Consider `CC(=O)Nc1cccc(C(C)O)c1` (stereo not given), for which the melting point lay within 103 to 105 °C.

Consider `N#Cc1ccc(Oc2ccc(O)cc2)cc1`, for which the melting point lay within 148 to 150 °C. The value for `CC(C)S(=O)(=O)Nc1ccc(S(N)(=O)=O)cc1F` was 134 to 136 °C; that for `CSc1nc(N)cc(O)n1` was 279 to 281 °C; that for `COc1cc(OC)cc(N2CCC(Br)C2=O)c1` (stereo not given) was 78 to 80 °C. With `Nc1ccc2nncn2c1` the figure was 169 to 171 °C; with `Brc1ccc(NCc2ccccn2)cc1`, 76 to 78 °C. With `COc1cc(C)c(Br)cc1S(=O)(=O)Cl` the figure was 137 to 139 °C. The compound `Cn1cc(-c2nc(C(=O)O)cs2)cn1` returned a melting point of 262 to 264 °C.

The compound `Cc1cc(S(N)(=O)=O)cc(NC(=O)CCl)c1C` returned a melting point of 210 to 212 °C. With `CC(C)(C)CCS(N)(=O)=O` the figure was 91 to 93 °C; with `CC(=O)Nc1ccc2c(c1)CN(C(=O)OC(C)(C)C)CC2`, 110 to 112 °C; with `COc1ccc(-c2nc(C(=O)O)cs2)cc1`, 172 to 174 °C.

`CC(C)(C)NCC(N)=O` came in with a melting point of 49 to 51 °C.

`Cc1sc2nc(Cn3cnc([N+](=O)[O-])c3)nc(Cl)c2c1C` displayed a melting point of 185 to 187 °C.

Compound `Cc1cc(C(=O)Cl)sc1C` showed a melting point of 59 to 61 °C. With `Cc1c(C(=O)O)sc2nc[nH]c(=O)c12` the figure was 248 to 252 °C. For the compound `Oc1ccc(-c2nnc[nH]2)cc1`, the melting point is 244 to 246 °C.

As for `Cc1cc(C(N)=O)c2ccccc2n1`, the melting point lay within 246 to 248 °C. `Cc1c(C(=O)O)cnn1-c1cccc(Br)c1` showed a melting point of 169 to 171 °C.

On to `O=[N+]([O-])c1ccc(Cl)nc1O`, for which the melting point was in the range of 139 to 141 °C. With `O=C(Nc1ccc(Br)cc1Cl)OCC(F)(F)F` the figure was 70 to 72 °C; with `Nn1c(S)nnc1-c1ccccc1F`, 184 to 186 °C; with `Sc1nnc(-c2ccccc2)s1`, 199 to 201 °C.

In turn, `Cc1nc2ccccc2n1Cc1cc(N)ccc1Cl` gave a melting point of 191 to 193 °C. With `NS(=O)(=O)c1cccc(-c2nnco2)c1`, the melting point was 184 to 186 °C. For `Cc1cc(C)cc(-n2ncc(C(=O)O)n2)c1`, the melting point lay in the range of 158 to 160 °C. `OCc1nnc(Cc2ccccc2Br)[nH]1` returned a melting point of 99 to 101 °C. The value for `CCCC(NCCC(=O)Nc1cc(C)on1)C(=O)O` (stereo not given) was 227 to 229 °C; that for `CCOC(=O)c1c(C)[nH]c(C(=O)CCl)c1C` was 188 to 190 °C; that for `O=C(O)c1cc(S(=O)(=O)N2CCSCC2)c[nH]1` was 238 to 240 °C.

`O=C(O)c1nn(-c2ccccc2F)c2c1CCC2` came in with a melting point of 194 to 196 °C. In turn, `Cc1ccc(C(=O)O)cc1NC(=O)Nc1ccccc1` registered a melting point of 309 to 311 °C. With `CCCCCCCC(=O)NCCCC(=O)O` the figure was 69 to 71 °C.

For `O=C(O)c1cc(F)c(O)c(F)c1`, the melting point fell in the range of 160 to 162 °C. The value for `Nc1nncc(-c2ccccc2)n1` was 235 to 237 °C; that for `Nc1ccc(C(=O)Nc2nccs2)cc1` was 256 to 258 °C; that for `Cc1noc2nc(-c3cccs3)cc(C(=O)O)c12` was 138 to 140 °C. Regarding `CN(C)S(=O)(=O)c1ccnc(N)c1`, the melting point fell in the range of 148 to 150 °C.

As to `CC(=O)c1cc(N)cc(C(C)=O)c1`, the melting point was 139 to 141 °C. In the case of `Cc1n[nH]c(C(=O)O)c1C`, the melting point fell in the range of 288 to 290 °C. The value for `CC1CCc2c(sc3nc(S)nc(S)c23)C1` (stereo not given) was 337 to 339 °C; that for `CC(C)(C)OC(=O)N1CCC(CC#N)CC1` was 72 to 74 °C.

`CCOc1cccc(S(N)(=O)=O)c1` displayed a melting point of 129 to 131 °C. With `C/C(Cn1nc(C)cc1C)=N\O` the figure was 114 to 116 °C. `CCOc1cccc(CNC(=O)CCl)c1` registered a melting point of 97 to 99 °C. With `COC(=O)c1c(N)cccc1F` the figure was 53 to 55 °C; with `CC(C(=O)O)n1c(S)nc2ccccc2c1=O` (stereo not given), 238 to 240 °C.

Regarding `Nc1ccc(NC(=O)NC2CC2)cc1`, the melting point was 161 to 163 °C.

Turning to `NC(CCc1ccccc1)=NO`, the melting point lay in the range of 40 to 42 °C.
